Laboratory results published in article PMC9019904, “AD Informer Set: Chemical tools to facilitate Alzheimer's disease drug discovery” (Alzheimer's & Dementia : Translational Research & Clinical …, 2022).
Values after ≈ are worked out from the molar mass of the structure shown.

What was measured:
[1] = physchem; details: pH 7.4, aqueous buffer, kinetic from dmso stock
[2] = test system: BV2 (mouse microglia) cell line; experiment: pHrodo-myelin phagocytosis/cell viability high content imaging assay: phagocytosis signal; type: cell-based
How it was run: (§1)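 Simultaneous phagocytosis/viability imaging at approximately 22 h after adding pHrodo-myelin. Rising intensity flagged early apoptosis and falling intensity later apoptosis.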

[3] = test system: cellular system; details: published cellular activity at 10 μM; cited from earlier work
[4] = test system: HMC3 (human microglia) cell line; experiment: pHrodo-myelin phagocytosis/cell viability high content imaging assay: phagocytosis signal; type: cell-based
How it was run: as §1

[5] = test system: BV2 (mouse microglia) cell line; experiment: pHrodo-myelin phagocytosis/cell viability high content imaging assay: viability (cell count, nuclear area, nuclear intensity)
How it was run: (§2)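 Viability was read as total cell count per well by high-content imaging, with mean average nuclear intensity per cell profiling apoptosis (rise early, fall late). Compounds were given at 10 μM for 48 h, pHrodo-myelin being added for the final 20 h. Values are means of two points as % untreated control.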

[6] = test system: HMC3 (human microglia) cell line; experiment: as above; details: for Human microglial cytotoxicity at 10 μM (<70% control): HMC3, 10 μM
How it was run: as §2

[7] = BV2 cells, 10 uM compound, 48 hours treatment
[8] = HMC3 cells, 10 uM compound, 48 hours treatment

## CC[C@H](C)[C@H](N)C(=O)NCCN1CCOCC1.Cl.Cl [LM11A-31 dihydrochloride]
[1]
  solubility kinetic: 178 µM
[2]; BV2 cells, 10 μM
  Stimulation of mouse microglial phagocytosis at 10 μM (>150% control): Y (The compound was found to stimulate phagocytosis (response threshold: >150% control) when murine immortalized microglial cells were dosed at 10 μM (Y: yes))
[3]
  Reported as cell active (<10 μM): Y (Published data supports that the compound is active in a cellular system when dosed at 10 μM (Y/N))

## Cl.O=C(NCCCNc1nc(Nc2cccc(CN3CCOCC3)c2)ncc1C1CC1)C1CCC1 [UNC10302867A, reference compound]
[1]
  solubility kinetic: 119 µM
[2]; 10 μM, BV2
  Stimulation of mouse microglial phagocytosis at 10 μM (>150% control): Y (The compound was found to stimulate phagocytosis (response threshold: >150% control) when murine immortalized microglial cells were dosed at 10 μM (Y: yes))
[2]; BV2, 10 μM, pHrodo-myelin
  phagocytosis in mouse microglial cells (< 70% control inhibition, > 150% control stimulation): stimulator of phagocytosis
[2]; BV2 cells, 10 uM compound, 48 hours treatment, pHrodo-myelin final 20 hours
  4. Phagocytosis (% control): 282.0 % control
[4]; 10 μM, HMC3
  Stimulation of human microglial phagocytosis at 10 μM (>150% control): Y (The compound was found to stimulate phagocytosis (response threshold: >150% control) when human immortalized microglial cells were dosed at 10 μM (Y: yes))
[4]; HMC3, 10 μM, pHrodo-myelin
  phagocytosis in human microglial cells (< 70% control inhibition, > 150% control stimulation): stimulator of phagocytosis
[4]; HMC3 cells, 10 uM compound, 48 hours treatment, pHrodo-myelin final 20 hours
  4. Phagocytosis (% control): 290.0 % control
[5]; 10 μM, BV2
  Mouse microglial cytotoxicity at 10 μM (<70% control): Y (The compound was found to be cytotoxic (cell count threshold: <70% control) when murine immortalized microglial cells were dosed at 10 μM (Y: yes))
[5]; [7]
  1. Cell count (% control): 17.6 % control
  2. Nuclear Area (% Control): 154.0 % Control
  3. Nuclear DNA Intensity (% control): 122.3 % control
[6]; [8]
  1. Cell count (% control): 81.1 % control
  2. Nuclear Area (% Control): 129.3 % Control
  3. Nuclear DNA Intensity (% control): 124.9 % control

## CN(C)CC#Cc1ccc(OCCCc2sc(N3CCc4cccc(C(=O)Nc5nc6ccccc6s5)c4C3)nc2C(=O)O)c(F)c1 [A-1155463]
[1]
  solubility kinetic: 1.5 µM (≈ 1 µg/mL)
[2]; BV2, 10 μM
  Stimulation of mouse microglial phagocytosis at 10 μM (>150% control): Y (The compound was found to stimulate phagocytosis (response threshold: >150% control) when murine immortalized microglial cells were dosed at 10 μM (Y: yes))
[4]; HMC3, 10 μM
  Inhibition of human microglial phagocytosis at 10 μM (<70% control): Y (The compound was found to inhibit phagocytosis (response threshold: <70% control) when human immortalized microglial cells were dosed at 10 μM (Y: yes))

## CC(C)CCC[C@@H](C)[C@H]1CC[C@H]2[C@@H]3CC[C@H]4C[C@H](N)CC[C@]4(C)[C@H]3CC[C@]12C [3α-Aminocholestane]
[1]
  solubility kinetic: 2.2 µM (≈ 0.853 µg/mL)
[2]; 10 μM, BV2
  Stimulation of mouse microglial phagocytosis at 10 μM (>150% control): Y (The compound was found to stimulate phagocytosis (response threshold: >150% control) when murine immortalized microglial cells were dosed at 10 μM (Y: yes))
[4]; 10 μM, HMC3
  Inhibition of human microglial phagocytosis at 10 μM (<70% control): Y (The compound was found to inhibit phagocytosis (response threshold: <70% control) when human immortalized microglial cells were dosed at 10 μM (Y: yes))
[5]; 10 μM, BV2
  Mouse microglial cytotoxicity at 10 μM (<70% control): Y (The compound was found to be cytotoxic (cell count threshold: <70% control) when murine immortalized microglial cells were dosed at 10 μM (Y: yes))

## O=C(Nc1ccc([N+](=O)[O-])cc1Cl)c1cc(Cl)ccc1O [Niclosamide]
[1]
  solubility kinetic: 17.5 µM (≈ 5.72 µg/mL)
[4]; HMC3 cells, 10 μM
  Inhibition of human microglial phagocytosis at 10 μM (<70% control): Y (The compound was found to inhibit phagocytosis (response threshold: <70% control) when human immortalized microglial cells were dosed at 10 μM (Y: yes))
[3]
  Reported as cell active (<10 μM): Y (Published data supports that the compound is active in a cellular system when dosed at 10 μM (Y/N))

## Cc1c(-c2ccc(O)cc2)n(Cc2ccc(OCCN3CCCCCC3)cc2)c2ccc(O)cc12 [Bazedoxifene acetate]
[1]
  solubility kinetic: 10.8 µM
[2]; 10 μM, BV2
  Inhibition of mouse microglial phagocytosis at 10 μM (<70% control): Y (The compound was found to inhibit phagocytosis (response threshold: <70% control) when murine immortalized microglial cells were dosed at 10 μM (Y: yes))
[4]; 10 μM, HMC3
  Inhibition of human microglial phagocytosis at 10 μM (<70% control): Y (The compound was found to inhibit phagocytosis (response threshold: <70% control) when human immortalized microglial cells were dosed at 10 μM (Y: yes))

## O=c1[nH]c2ccccc2n1C1CCN(CCCC(c2ccc(F)cc2)c2ccc(F)cc2)CC1 [Pimozide]
[1]
  solubility kinetic: 2.9 µM (≈ 1.34 µg/mL)
[3]
  Reported as cell active (<10 μM): Y (Published data supports that the compound is active in a cellular system when dosed at 10 μM (Y/N))

## CNC(=O)CN1CCC(Oc2cc3c(Nc4cccc(Cl)c4F)ncnc3cc2OC)CC1 [Sapitinib (AZD8931)]
[1]
  solubility kinetic: 115 µM (≈ 54.3 µg/mL)
[2]; BV2, 10 μM
  Inhibition of mouse microglial phagocytosis at 10 μM (<70% control): Y (The compound was found to inhibit phagocytosis (response threshold: <70% control) when murine immortalized microglial cells were dosed at 10 μM (Y: yes))
[4]; HMC3, 10 μM
  Stimulation of human microglial phagocytosis at 10 μM (>150% control): Y (The compound was found to stimulate phagocytosis (response threshold: >150% control) when human immortalized microglial cells were dosed at 10 μM (Y: yes))

## CC(C)Nc1cc(-c2c[nH]c(C(=O)N[C@H](CO)c3cccc(Cl)c3)c2)c(Cl)cn1 [Ulixertinib]
[1]
  solubility kinetic: 8.7 µM (≈ 3.77 µg/mL)
[2]; 10 μM, BV2
  Stimulation of mouse microglial phagocytosis at 10 μM (>150% control): Y (The compound was found to stimulate phagocytosis (response threshold: >150% control) when murine immortalized microglial cells were dosed at 10 μM (Y: yes))
[4]; 10 μM, HMC3
  Inhibition of human microglial phagocytosis at 10 μM (<70% control): Y (The compound was found to inhibit phagocytosis (response threshold: <70% control) when human immortalized microglial cells were dosed at 10 μM (Y: yes))
[5]; 10 μM, BV2
  Mouse microglial cytotoxicity at 10 μM (<70% control): Y (The compound was found to be cytotoxic (cell count threshold: <70% control) when murine immortalized microglial cells were dosed at 10 μM (Y: yes))

## Cc1ccc(S(=O)(=O)O)cc1.Nc1n[nH]cc1-c1cc(Cl)ccc1Oc1cc(F)c(S(=O)(=O)Nc2cscn2)cc1Cl [PF-05089771]
[1]
  solubility kinetic: 76.4 µM
[3]
  Reported as cell active (<10 μM): Y (Published data supports that the compound is active in a cellular system when dosed at 10 μM (Y/N))

## NC(=O)[C@@H]1CC[C@H](c2ccc(OCc3ccccc3F)cc2)N1 [Raxatrigine]
[1]
  solubility kinetic: 178 µM (≈ 55.9 µg/mL)
[2]; BV2 cells, 10 μM
  Stimulation of mouse microglial phagocytosis at 10 μM (>150% control): Y (The compound was found to stimulate phagocytosis (response threshold: >150% control) when murine immortalized microglial cells were dosed at 10 μM (Y: yes))
[3]
  Reported as cell active (<10 μM): Y (Published data supports that the compound is active in a cellular system when dosed at 10 μM (Y/N))

## Cc1cc(Nc2nc(N[C@@H](C)c3ncc(F)cn3)ncc2Cl)n[nH]1 [AZD-1480]
[1]
  solubility kinetic: 141 µM (≈ 49 µg/mL)
[2]; BV2 cells, 10 μM
  Stimulation of mouse microglial phagocytosis at 10 μM (>150% control): Y (The compound was found to stimulate phagocytosis (response threshold: >150% control) when murine immortalized microglial cells were dosed at 10 μM (Y: yes))
[3]
  Reported as cell active (<10 μM): Y (Published data supports that the compound is active in a cellular system when dosed at 10 μM (Y/N))
[5]; BV2 cells, 10 μM, cell count <70% control
  Mouse microglial cytotoxicity at 10 μM (<70% control): Y (The compound was found to be cytotoxic (cell count threshold: <70% control) when murine immortalized microglial cells were dosed at 10 μM (Y: yes))

## CCc1cc2c(cc1N1CCC(N3CCOCC3)CC1)C(C)(C)c1[nH]c3cc(C#N)ccc3c1C2=O [Alectinib]
[1]
  solubility kinetic: 0.6 µM (≈ 0.29 µg/mL)
[2]; BV2, 10 μM
  Stimulation of mouse microglial phagocytosis at 10 μM (>150% control): Y (The compound was found to stimulate phagocytosis (response threshold: >150% control) when murine immortalized microglial cells were dosed at 10 μM (Y: yes))
[4]; HMC3, 10 μM
  Inhibition of human microglial phagocytosis at 10 μM (<70% control): Y (The compound was found to inhibit phagocytosis (response threshold: <70% control) when human immortalized microglial cells were dosed at 10 μM (Y: yes))
[6]
  Human microglial cytotoxicity at 10 μM (<70% control): Y (The compound was found to be cytotoxic (cell count threshold: <70% control) when human immortalized microglial cells were dosed at 10 μM (Y: yes))

## Cc1cc(SCc2sc(-c3ccc(C(F)(F)F)c(F)c3)nc2C)ccc1OCC(=O)O [GW0742]
[1]
  solubility kinetic: 145 µM (≈ 68.3 µg/mL)
[3]
  Reported as cell active (<10 μM): Y (Published data supports that the compound is active in a cellular system when dosed at 10 μM (Y/N))

## C=Cc1c(C)c2cc3nc(cc4[nH]c(cc5nc(cc1[nH]2)C(C)=C5CCC(=O)O)c(CCC(=O)OC)c4C)[C@@]1(C)C3=CC=C(C(=O)OC)[C@H]1C(=O)OC [Verteporfin]
[1]
  solubility kinetic: 134 µM (≈ 96.7 µg/mL)
[2]; BV2, 10 μM
  Stimulation of mouse microglial phagocytosis at 10 μM (>150% control): Y (The compound was found to stimulate phagocytosis (response threshold: >150% control) when murine immortalized microglial cells were dosed at 10 μM (Y: yes))
[4]; HMC3, 10 μM
  Inhibition of human microglial phagocytosis at 10 μM (<70% control): Y (The compound was found to inhibit phagocytosis (response threshold: <70% control) when human immortalized microglial cells were dosed at 10 μM (Y: yes))

## O=S(=O)(c1ccc2c(c1)C(=NO)c1cc(S(=O)(=O)N3CCCCC3)ccc1-2)N1CCCCC1 [CA3 (CIL56)]
[1]
  solubility kinetic: 1.2 µM (≈ 0.588 µg/mL)
[2]; BV2, 10 μM
  Inhibition of mouse microglial phagocytosis at 10 μM (<70% control): Y (The compound was found to inhibit phagocytosis (response threshold: <70% control) when murine immortalized microglial cells were dosed at 10 μM (Y: yes))
[4]; HMC3, 10 μM
  Inhibition of human microglial phagocytosis at 10 μM (<70% control): Y (The compound was found to inhibit phagocytosis (response threshold: <70% control) when human immortalized microglial cells were dosed at 10 μM (Y: yes))
[5]; BV2, 10 μM, cell count <70% control
  Mouse microglial cytotoxicity at 10 μM (<70% control): Y (The compound was found to be cytotoxic (cell count threshold: <70% control) when murine immortalized microglial cells were dosed at 10 μM (Y: yes))
[6]; cell count <70% control
  Human microglial cytotoxicity at 10 μM (<70% control): Y (The compound was found to be cytotoxic (cell count threshold: <70% control) when human immortalized microglial cells were dosed at 10 μM (Y: yes))
